Source: BindingDB's records for doi:10.1016/s0028-3908(96)00054-8 (National Institute of Diabetes, Digestive and Kidney …, 1996)

Tests used:
[1] = target: Gamma-aminobutyric acid receptor subunit alpha-4 (Rattus norvegicus, UniProt P28471)
[2] = target: Gamma-aminobutyric acid receptor subunit alpha-6 (Rattus norvegicus, UniProt P30191)
Sequence of Gamma-aminobutyric acid receptor subunit alpha-6 (P30191 whole entry): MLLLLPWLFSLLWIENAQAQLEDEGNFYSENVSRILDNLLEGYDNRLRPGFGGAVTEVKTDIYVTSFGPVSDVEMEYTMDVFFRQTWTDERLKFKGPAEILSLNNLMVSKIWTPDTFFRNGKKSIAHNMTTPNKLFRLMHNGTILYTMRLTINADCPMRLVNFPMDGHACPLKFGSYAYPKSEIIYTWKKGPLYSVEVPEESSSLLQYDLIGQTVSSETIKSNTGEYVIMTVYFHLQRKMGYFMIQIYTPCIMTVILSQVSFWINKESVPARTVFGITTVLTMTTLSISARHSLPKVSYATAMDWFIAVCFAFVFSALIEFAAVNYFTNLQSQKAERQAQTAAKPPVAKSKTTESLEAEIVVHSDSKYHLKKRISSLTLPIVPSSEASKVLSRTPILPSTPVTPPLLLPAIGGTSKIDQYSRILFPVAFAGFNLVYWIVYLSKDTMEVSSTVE

Sequence of Gamma-aminobutyric acid receptor subunit alpha-4 (P28471 whole entry): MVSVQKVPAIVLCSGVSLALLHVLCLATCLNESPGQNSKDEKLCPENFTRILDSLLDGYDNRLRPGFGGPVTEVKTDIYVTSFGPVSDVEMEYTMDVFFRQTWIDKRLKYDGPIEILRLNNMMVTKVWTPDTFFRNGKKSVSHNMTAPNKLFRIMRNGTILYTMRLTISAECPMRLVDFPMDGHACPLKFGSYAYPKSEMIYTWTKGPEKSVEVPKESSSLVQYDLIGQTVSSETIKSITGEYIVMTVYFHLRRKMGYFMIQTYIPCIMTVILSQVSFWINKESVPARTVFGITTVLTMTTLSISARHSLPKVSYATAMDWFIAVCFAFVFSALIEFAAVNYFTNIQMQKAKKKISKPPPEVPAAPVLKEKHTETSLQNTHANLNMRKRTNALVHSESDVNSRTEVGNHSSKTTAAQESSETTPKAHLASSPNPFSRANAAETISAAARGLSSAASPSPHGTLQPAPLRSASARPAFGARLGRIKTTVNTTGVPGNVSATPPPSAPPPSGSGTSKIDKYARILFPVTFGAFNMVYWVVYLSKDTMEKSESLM

With O=c1c2cnc3ccccc3c2[nH]n1-c1ccccc1 the Ki [1] was 8 nM and the Ki [2] was 34.3 nM.

For CN1Cc2c(C(=O)OC(C)(C)C)ncn2-c2ccc(Cl)cc2C1=O, the Ki [1] was 9.5 nM and the Ki [2] was 8.2 nM.

Work on CN1Cc2c(C(=O)OC(C)(C)C)ncn2-c2ccc(N=[N+]=[N-])cc2C1=O yielded a Ki [1] of 5.2 nM and a Ki [2] of 5.3 nM.

With COC(=O)c1cc2c(cn1)[nH]c1ccccc12 the Ki [1] was 436 nM and the Ki [2] was 2020 nM.

Work on CCOC(=O)c1cc2c(cn1)[nH]c1ccccc12 yielded a Ki [2] of 2620 nM.

CC(C)(C)OC(=O)c1cc2c(cn1)[nH]c1ccccc12 gave a Ki [1] of 897 nM and a Ki [2] of 4750 nM.

O=c1c2cnc3ccccc3c2[nH]n1-c1ccc(Cl)cc1 was tested, and the Ki [1] was 214 nM and the Ki [2] was 500 nM.

In the case of COc1ccc(-n2[nH]c3c(cnc4cc(OC)ccc43)c2=O)cc1, the Ki [1] is reported as 11.6 nM and the Ki [2] is reported as 23 nM.

COc1ccc2ncc3c(=O)n(-c4ccccc4)[nH]c3c2c1 showed a Ki [1] of 22.5 nM and a Ki [2] of 74.5 nM.

Compound COc1ccc(-n2[nH]c3c(cnc4ccccc43)c2=O)cc1 [2-(4-Methoxy-phenyl)-2,5-dihydro-pyrazolo[4,3-c]quinolin-3-one (CGS 9895)] has a Ki [1] of 6.8 nM and a Ki [2] of 38.4 nM.

For CCc1ccc2c(c1)C(=O)N(C)Cc1c(C(=O)OC(C)(C)C)ncn1-2 [DM 286], the Ki [1] was 10 nM and the Ki [2] was 13.5 nM.

Compound CN1Cc2c(C(=O)OC(C)(C)C)ncn2-c2ccc(OCc3ccccc3)cc2C1=O [DM-236] has a Ki [1] of 188 nM and a Ki [2] of 1590 nM.

With CCc1c(C(=O)OC)ncc2[nH]c3cc(OC)c(OC)cc3c12 [NSC_104999] the Ki [1] was 38.5 nM and the Ki [2] was 121 nM.

CCOC(=O)c1ncc2[nH]c3ccc(OCc4ccccc4)cc3c2c1COC [NSC_121926] was tested, and the Ki [1] was over 10000 nM and the Ki [2] was over 10000 nM.

With CCOC(=O)c1ncc2[nH]c3cccc(OCc4ccccc4)c3c2c1COC [NSC_123700] the Ki [1] was 573 nM and the Ki [2] was 1200 nM.

CCOC(=O)c1ncn2c1CN(C)C(=O)c1cc(N=[N+]=[N-])ccc1-2 [RO-154513] was tested, and the Ki [2] was 5.3 nM.

In the case of CN1Cc2c(C(=O)OC(C)(C)C)ncn2-c2ccsc2C1=O [Ro-19-4603], the Ki [1] is reported as 6 nM and the Ki [2] is reported as 3.6 nM.

In the case of CCOC(=O)c1ncn2c1CN(C)C(=O)c1cc(F)ccc1-2 [ethyl 12-fluoro-8-methyl-9-oxo-2,4,8-triazatricyclo[8.4.0.0^{2,6}]tetradeca-1(14),3,5,10,12-pentaene-5-carboxylate], the Ki [1] is reported as 118 nM.
